Peptide text beside a SMILES is read from it.
Experiments:
CK2α = target: T1, CK2α (Homo sapiens, UniProt P68400); experiment: Surface plasmon resonance (Biacore assay), CK2α; type: binding; settings: SPR, peptide immobilized, CK2α flowed
T1 construct: purchased GenScript
From the text: Figure 2 MOTS-c directly binds and activates CK2 in cell-free systems (A–C) Dot blot assays with (A) CK2 complex (contains both CK2α and CK2β subunits) immobilized, MOTS-c flowed over the membrane, and detected by MOTS-c antibody. (B–C) MOTS-c immobilized, CK2 complex flowed over the membrane, and detected by CK2α (B) and CK2β (C) antibodies. (D) CK2α or CK2β immobilized, MOTS-c flowed over the membrane, and detected by MOTS-c antibody. FO, flow over; IB, immunoblotting. (E): Surface plasmon resonance (Biacore assay) of MOTS-c (10 μg/mL) and CK2α (2.5 nM, 5.0 nM, 10 nM, and 20 nM). MOTS-c was immobilized on the sensor chip and CK2α flowed over the sensor chip. KD, dissociation constant. (F) Molecular docking simulation of the binding between MOTS-c and CK2α by using AlphaFold2. (G) CK2 activity assessed by kinase activity assay with/without MOTS-c in cell-free condition. […]
The kinetics of MOTS-c WT/K14Q (GenScript) and CK2α (GenScript)/β (IBL) were assessed by using surface plasmon resonance (Biacore T200, Cytiva). […] Then, since we detected the binding signal only with CK2α, CK2α was flowed (30 μL/min) over the sensor chip at 2.5 nM, 5.0 nM, 10 nM, and 20 nM in running buffer (0.01M HEPES, 0.15 M NaCl, 0.3 mM EDTA, and 0.05% tween). After each concentration of CK2α was assessed, CK2α was removed using 4 mM and 5 mM Sodium Hydroxide for MOTS-c and K14Q MOTS-c, respectively. […]

[1] = Plasma MOTS-c levels after MOTS-c administration; type: in vivo, mouse (C57BL/6J); settings: single IP 7.5 mg/kg, young mice, n = 5 per time point
Procedure: Figure 3 MOTS-c modulates CK2 activity in a tissue-specific manner (A) Experimental design of a single MOTS-c administration (7.5 mg/kg) experiment in young mice (n = 5 per time point). (B) Plasma MOTS-c levels after MOTS-c administration. ∗: p < 0.05 versus time 0. (C) Quantification of CK2 activity assessed by western blotting in each tissue shown in ([…]). (E–F) CK2 activity assessed by western blotting with p-CK2 substrate antibody in gastrocnemius muscle (D), epididymal fat (E), and liver (F) after MOTS-c administration. ∗p < 0.05, ∗∗p < 0.01 versus time 0 in same tissue. (G–I) MOTS-c detection following CK2α immunoprecipitation (IP) in gastrocnemius muscle (G), epididymal fat (H), and liver (I) 30 min after MOTS-c administration (7.5 mg/kg). The "-" indicates tissues from non-MOTS-c administered mice, while the "+" indicates tissues from MOTS-c administered mice. (J–K) CK2 activity after 10 min MOTS-c treatment (10 μM) in differentiated skeletal muscle (J) and adipocyte (K). Data are represented as mean ± SEM for (B, C, J, and K).
Acute MOTS-c administration experiment: Male C57BL/6J mice at 10–12 weeks of age were randomly assigned to one of the experimental time points: 0 min, 15 min, 30 min, or 180 min. MOTS-c ([…]) was administered by intraperitoneal injection. At each time point, plasma was collected under anesthesia with isoflurane. […]

[2] = test system: skeletal muscle (gastrocnemius) glucose uptake; experiment: In vivo skeletal muscle 2-deoxyglucose (2DG) uptake; set-up: species or system mouse (C57BL/6J)
Procedure: 2-deoxyglucose (2-DG) uptake experiment: Male C57BL/6J mice at 14–15 weeks of age were received sham injection (injected nothing) for seven days before the experiment to acclimated to the invasive stimulus by the injection. A selective CK2 inhibitor CX-4945 (MCE) was dissolved in 0.9% saline containing 5% DMSO. After 120 min of fasting, mice were intraperitoneally injected with a CK2 inhibitor at 25 mg/kg or vehicle.[45] Two hours later, mice were injected insulin at 0.75 U/kg (MilliporeSigma) and MOTS-c at 7.5 mg/kg (GenScript) or sterilized water. Then 10 min later, 5 μg of 2DG (Sigma-Aldrich) was injected.[46] Mice were euthanized 45 min after 2DG injection and gastrocnemius muscle was collected. The collected samples were stored at −80°C for further analyses. The entire gastrocnemius muscle was used for the analysis to avoid potential bias.
To measure glucose uptake into mouse skeletal muscle, 2-DG uptake measurement kit was used (Cosmo Bio). Gastrocnemius muscle samples were homogenized in 10 mM tris-HCL (pH. 8.1) and then incubated at 95°C for 15 min. Samples were centrifuged for 15 min at 17,800 g (4°C), and the supernatant was diluted in 10 mM tris-HCl.[66] Diluted samples ([…]) were used for further analysis according to the manufacturer’s instructions (Cosmo Bio Co.).

T1 sequence (P68400 whole entry): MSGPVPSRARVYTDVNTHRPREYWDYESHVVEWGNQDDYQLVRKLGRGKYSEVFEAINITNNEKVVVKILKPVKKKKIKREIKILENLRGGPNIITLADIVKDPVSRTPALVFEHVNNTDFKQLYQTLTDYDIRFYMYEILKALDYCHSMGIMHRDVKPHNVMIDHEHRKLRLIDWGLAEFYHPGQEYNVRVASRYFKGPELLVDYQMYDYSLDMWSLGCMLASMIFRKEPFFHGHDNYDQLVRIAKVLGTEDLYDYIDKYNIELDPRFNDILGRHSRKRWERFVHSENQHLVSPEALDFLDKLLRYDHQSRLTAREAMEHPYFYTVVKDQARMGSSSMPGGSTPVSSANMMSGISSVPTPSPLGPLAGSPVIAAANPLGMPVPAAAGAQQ

| Compound | Reciprocal of KD (CK2α) | MOTS-c levels in plasma [1] | Muscle glucose uptake, CK2 inhibitor co-administered with MOTS-c ([2]; CX-4945 25 mg/kg + MOTS-c 7.5 mg/kg) | Muscle glucose uptake with CK2 inhibitor alone ([2]; CX-4945 25 mg/kg IP 2 h before insulin 0.75 U/kg, p = 0.053, n = 10-11 per group) |
| --- | --- | --- | --- | --- |
| CC[C@H](C)[C@H](NC(=O)[C@H](Cc1ccc(O)cc1)NC(=O)CNC(=O)[C@H](CCSC)NC(=O)[C@H](CCC(=O)O)NC(=O)[C@H](CCC(N)=O)NC(=O)[C@H](Cc1c[nH]c2ccccc12)NC(=O)[C@H](CCCNC(=N)N)NC(=O)[C@@H](N)CCSC)C(=O)N[C@@H](Cc1ccccc1)C(=O)N[C@@H](Cc1ccc(O)cc1)C(=O)N1CCC[C@H]1C(=O)N[C@@H](CCCNC(=N)N)C(=O)N[C@@H](CCC(N)=O)C(=O)N[C@@H](CC(C)C)C(=O)N[C@@H](CCCNC(=N)N)C(=O)O [K14Q MOTS-c] (H-MRWQEMGYIFYPRQLR-OH) | 0.062 nM⁻¹ | – | – | – |
| CC[C@H](C)[C@H](NC(=O)[C@H](Cc1ccc(O)cc1)NC(=O)CNC(=O)[C@H](CCSC)NC(=O)[C@H](CCC(=O)O)NC(=O)[C@H](CCC(N)=O)NC(=O)[C@H](Cc1c[nH]c2ccccc12)NC(=O)[C@H](CCCNC(=N)N)NC(=O)[C@@H](N)CCSC)C(=O)N[C@@H](Cc1ccccc1)C(=O)N[C@@H](Cc1ccc(O)cc1)C(=O)N1CCC[C@H]1C(=O)N[C@@H](CCCNC(=N)N)C(=O)N[C@@H](CCCCN)C(=O)N[C@@H](CC(C)C)C(=O)N[C@@H](CCCNC(=N)N)C(=O)O [MOTS-c] (H-MRWQEMGYIFYPRKLR-OH) | 1.0 nM⁻¹ | increased MOTS-c levels in plasma | – | – |
| O=C(O)c1ccc2c(c1)nc(Nc1cccc(Cl)c1)c1ccncc12 [CX-4945] | – | – | prevented the increase in muscle glucose uptake by MOTS-c | decreased muscle glucose uptake (p = 0.053) |

From PMC11570452, “MOTS-c modulates skeletal muscle function by directly binding and activating CK2” (iScience, 2024)
